Experimental data taken from patent US20040186122A1, “Method of treating acute pain with a unitary dosage form comprising ibuprofin and oxycodone” (Forest Laboratories, Inc., priority 2002, published 2004).

Columns and labels:
Caco-2 cell monolayers [1] = test: Membrane integrity (TEER) of Caco-2 cell monolayers before and after transport; format: cell-based; conditions: at the concentrations used; TEER 980-1002 Ωcm^2 before, not changed after transport
Protocol: Each treatment was performed in triplicate. […] Samples then underwent LC/MS/MS analysis.

[2] = cited from earlier work
in vitro = conditions: human, Caco-2, Apparent permeability coefficients of ibuprofen (±standard deviation) (n = 3)
Caco-2 cell monolayers [3] = test: Transport (Papp) across Caco-2 cell monolayers, AP to BL; conditions: after the initial 20-minute transport period
[4] = as above; conditions: human, Caco-2, Apparent permeability coefficients of oxycodone (±standard deviation) (n = 3); for Papp A→B at 20 min, 0.02 mg/ml: after 20 minutes; for Papp A→B at 80 min, 0.02 mg/ml: oxycodone 0.02 mg/ml, AP-to-BL
[5] = tertiary amine; cited from earlier work

**Q.** Which results are given for `CC(C)Cc1ccc(C(C)C(=O)O)cc1` (stereo not drawn) [ibuprofen]?
**A.** integrity of Caco-2 cell monolayers (TEER) (Caco-2 cell monolayers [1]): did not compromise the integrity; bioavailability ([2]; literature (Hall et al. 1993)): ~100%; Papp A→B at 80 min, 0.2 mg/ml (in vitro): 56.5 ± 4.3 ×10⁻⁶ cm/s

**Q.** Which “integrity of Caco-2 cell monolayers (TEER)” value (Caco-2 cell monolayers [1]) does the source give for `COc1ccc2c3c1O[C@H]1C(=O)CC[C@@]4(O)[C@@H](C2)N(C)CC[C@]314.Cl` [oxycodone HCl, oxycodone hydrochloride] here?
**A.** The value was “did not compromise the integrity”.

**Q.** What about the absolute bioavailability ([2]; literature (Leow et al. 1992)) of the same compound?
**A.** Its absolute bioavailability is 87%.

**Q.** And the “percentage of transported oxycodone from apical to basolateral compartment” value (“percentage of transported oxycodone” below) (Caco-2 cell monolayers [3]; ibuprofen 0.8 mg/ml)?
**A.** Its value is 20%.

**Q.** And the “percentage of transported oxycodone” value (Caco-2 cell monolayers [3]; ibuprofen 1.6 mg/ml)?
**A.** The value was 19%.

**Q.** And the “transport of oxycodone, effect of ibuprofen” value (Caco-2 cell monolayers [3]; ibuprofen 3.2 mg/ml (precipitating))?
**A.** Its value is “did not increase the transport”.

**Q.** And the “percentage of transported oxycodone” value (Caco-2 cell monolayers [3]; no ibuprofen)?
**A.** The value was 15%.

**Q.** And the Papp A→B at 20 min, 0.02 mg/ml ([4]; ibuprofen 0 mg/ml)?
**A.** The Papp A→B at 20 min, 0.02 mg/ml was 15 ± 0.9 ×10⁻⁶ cm/s.

**Q.** What about the Papp A→B at 20 min, 0.02 mg/ml ([4]; ibuprofen 0.8 mg/ml) of the same compound?
**A.** The Papp A→B at 20 min, 0.02 mg/ml was 20 ± 0.6 ×10⁻⁶ cm/s.

**Q.** What about the Papp A→B at 20 min, 0.02 mg/ml ([4]; ibuprofen 1.6 mg/ml) of the same compound?
**A.** The Papp A→B at 20 min, 0.02 mg/ml was 19 ± 0.3 ×10⁻⁶ cm/s.

**Q.** And the Papp A→B at 20 min, 0.02 mg/ml ([4]; ibuprofen 3.2 mg/ml)?
**A.** The Papp A→B at 20 min, 0.02 mg/ml was 16 ± 0.7 ×10⁻⁶ cm/s.

**Q.** And the Papp A→B at 80 min, 0.02 mg/ml ([4]; ibuprofen 0 mg/ml)?
**A.** The Papp A→B at 80 min, 0.02 mg/ml was 54.2 ± 0.9 ×10⁻⁶ cm/s.

**Q.** What about the Papp A→B at 80 min, 0.02 mg/ml ([4]; ibuprofen 0.8 mg/ml) of the same compound?
**A.** Its Papp A→B at 80 min, 0.02 mg/ml is 56.9 ± 1.4 ×10⁻⁶ cm/s.

**Q.** What about the Papp A→B at 80 min, 0.02 mg/ml ([4]; ibuprofen 1.6 mg/ml) of the same compound?
**A.** The Papp A→B at 80 min, 0.02 mg/ml was 55.1 ± 1.3 ×10⁻⁶ cm/s.

**Q.** And the Papp A→B at 80 min, 0.02 mg/ml ([4]; ibuprofen 3.2 mg/ml (precipitate))?
**A.** Its Papp A→B at 80 min, 0.02 mg/ml is 50.5 ± 0.5 ×10⁻⁶ cm/s.

**Q.** And the pKa [5]?
**A.** Its pKa is “about 9”.
